Data set [1] concerns the target MAT2A (Homo sapiens (Human), UniProt P31153). Kind of data set: MAT2A biochemical test (inorganic phosphate colorimetric, PiColorLock). Conditions: read-out: MAT2A inhibitory Activity IC50. In short, it runs like this: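 Compounds tested from 10 μM top concentration in 3-fold dilutions, preincubated 120 min at room temperature with MAT2A ([…] final) in Tris/KCl/MgCl2/EDTA/BSA buffer. Reaction started with […] L-methionine and 400 μM ATP, run 90 min at room temperature; phosphate read by PiColorLock after 30 min. IC50 fitted from % inhibition versus no-enzyme and DMSO controls.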

Data set [2] can be described thus: Metabolic stability in mouse liver microsomes. Format: in vitro ADME. Conditions: 1 μM compound, 0.5 mg/mL microsome, NADPH; for half-life at 1 μM: CD-1, mouse, liver microsomes, pH 7.4, read-out: Mouse liver microsome stability t1/2. How it is done:
Test Example 4. Determination of Metabolic Stability of Compound of the Present Application in Liver Microsomes
The metabolic stability of the compound of the present application in liver microsomes was determined using the following method.
I. Experimental materials and instruments • 1. Human liver microsome (Corning 452117), beagle dog liver microsome (XENOTECH D1000), SD rat liver microsome (XENOTECH R1000), and CD-i mouse liver microsome (XENOTECH M1000) • 2. Na2HPO4 (Tianjin Guangfu Fine Chemical Research Institute 20180130) • 3. KH2PO4 (Tianjin Guangfu Fine Chemical Research Institute 20180920) • 4. MgCl2 (Tianjin Guangfu Fine Chemical Research Institute 20191216) • 5. NADPH (Solarbio 1216C022) • 6. Positive control compound verapamil (Sigma MKBV4993V) • 7. AB Sciex API4000 liquid chromatography-mass spectrometry system
1. Preparation of 100 mMV phosphate-buffered saline (PBS): 7.098 g Na2HPO4 was weighed. 500 mL pure water was added. The mixture was dissolved by sonication to give solution A. 3.400 g KH2PO4 was weighed. 250 mL pure water was added. The mixture was dissolved by sonication to give solution B. The solution A was placed in a stirrer, and the solution B was slowly added until the pH reached 7.4, so that the 100 mM PBS buffer was prepared.
2. Preparation of reaction system
The reaction system was prepared as follows:
3. The reaction system was pre-incubated in a 37° C. water bath for 10 min. 40 μL of 10 mM NADPH solution (NADPH was dissolved by 100 mM phosphate-buffered saline) was added to the reaction system with a final concentration of NADPH being 1 mM. A negative control was made by replacing the NADPH solution with 40 μL phosphate-buffered saline. The negative control was used to exclude the effect of chemical stability of the compound itself.
4. The reaction was initiated by adding 4 μL of 100 μM of the compound of the present application and verapamil, the positive control compound, to the reaction system with a final concentration of the compound being 1 μM.
5. After being uniformly mixed in a vortex oscillator, 50 μL incubation sample was respectively taken out at 0.5, 15, 30, 45, and 60 min, and the reaction was stopped by 200 μL glacial acetonitrile containing an internal standard. The sample was centrifuged at 3220 g for 45 min. 90 μL of the supernatant was transferred to a feeding plate after the centrifugation was completed, and 90 μL ultrapure water was added. The mixture was well mixed for LC-MS/MS analysis.
All data were calculated by Microsoft Excel software. The peak area was detected through an extracted ion chromatogram. The in vitro half-life (t1/2) of the compound was determined by linear fitting of the natural logarithm of compound elimination percentage over time.
In vitro half-life (t1/2) was calculated by the slope: […]
The in vitro intrinsic clearance (in μL/min/mg protein) was calculated using the following formula:
in vitro CLint=k×volume of incubation (μL)/amount of proteins (mg)
CLint was intrinsic clearance; k was an elimination rate constant; volume of incubation was the incubation volume (μL); amount of proteins was the amount of protein (mg)
(In general: Microsomes from liver hold many membrane-bound enzymes, among them those of drug oxidation.)

Like-named read-outs stand apart in the source and are kept apart here.

Chain of MAT2A (P31153 whole entry): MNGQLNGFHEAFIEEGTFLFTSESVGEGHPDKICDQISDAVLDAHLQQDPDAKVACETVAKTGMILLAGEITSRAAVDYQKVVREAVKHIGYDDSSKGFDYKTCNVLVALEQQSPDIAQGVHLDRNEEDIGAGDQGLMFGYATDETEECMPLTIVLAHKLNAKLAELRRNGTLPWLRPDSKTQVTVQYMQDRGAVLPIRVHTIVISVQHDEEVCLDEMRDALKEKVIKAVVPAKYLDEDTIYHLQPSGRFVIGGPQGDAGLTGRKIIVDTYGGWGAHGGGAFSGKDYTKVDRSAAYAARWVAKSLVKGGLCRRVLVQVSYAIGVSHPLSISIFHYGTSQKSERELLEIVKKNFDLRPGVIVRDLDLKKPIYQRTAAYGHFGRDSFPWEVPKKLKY

As for `Cc1ncccc1-n1c(=O)c2ncn(C)c2c2ccc(C(F)(F)F)nc21` (atropisomer, axis not shown) [Compound 20, 1-methyl-5-(2-methylpyridin-3-yl)-7-(trifluoromethyl)-1,5-dihydro-4H-imidazo[4,5-c][1,8]naphthyridin-4-one], the IC50 (in general, the concentration that inhibits the measured activity by half) in data set [1] (class symbols) is less than 100 nM; in data set [1] (numeric values) it was 54.9 nM. The half-life at 1 μM in data set [2] was greater than 5 h.
For `Cn1cnc2c(=O)n(-c3cccc(F)c3Cl)c3nc(C(F)(F)F)ccc3c21` (atropisomer, axis not shown) [Compound 25, 5-(2-chloro-3-fluorophenyl)-1-methyl-7-(trifluoromethyl)-1,5-dihydro-4H-imidazo[4,5-c][1,8]naphthyridin-4-one], in that order: less than 100 nM, 48 nM and 4.78 h.
For `Cn1cnc2c(=O)n(-c3cccc(F)c3Cl)c3nc(C(F)(F)F)ccc3c21` (single isomer, unassigned) [Compound 25-P2, 5-(2-chloro-3-fluorophenyl)-1-methyl-7-(trifluoromethyl)-1,5-dihydro-4H-imidazo[4,5-c][1,8]naphthyridin-4-one], in that order: less than 100 nM, 20.6 nM and greater than 5 h.
For `Cn1cnc2c(=O)n(-c3cccnc3C(F)(F)F)c3nc(C(F)(F)F)ccc3c21` (single isomer, unassigned) [Compound 41-P2, 1-methyl-7-(trifluoromethyl)-5-(2-(trifluoromethyl)pyridin-3-yl)-1,5-dihydro-4H-imidazo[4,5-c][1,8]naphthyridin-4-one], in that order: less than 100 nM, 22.3 nM and greater than 5 h.
In the case of `Cn1cnc2c(=O)n(-c3cccnc3C3CC3)c3nc(C(F)(F)F)ccc3c21` (single isomer, unassigned) [Compound 42-P2, 5-(2-cyclopropylpyridin-3-yl)-1-methyl-7-(trifluoromethyl)-1,5-dihydro-4H-imidazo[4,5-c][1,8]naphthyridin-4-one], the IC50 in data set [1] (class symbols) is less than 100 nM; in data set [1] (numeric values), 20.3 nM. Also, the half-life at 1 μM in data set [2] is 1.86 h.
Taken in the same sequence, the figures for `Cn1cnc2c(=O)n(-c3cccnc3C3CC3)c3cc(C(F)(F)F)ccc3c21` (single isomer, unassigned) [Compound 48-P2, 5-(2-cyclopropylpyridin-3-yl)-1-methyl-7-(trifluoromethyl)-1,5-dihydro-4H-imidazo[4,5-c]quinolin-4-one] were less than 100 nM, 21.4 nM and greater than 5 h.
Taken in the same sequence, the figures for `Cn1cnc2c(=O)n(-c3cccnc3C3CC3)c3cc(Cl)ccc3c21` (single isomer, unassigned) [Compound 49-P2, 7-chloro-5-(2-cyclopropylpyridin-3-yl)-1-methyl-1,5-dihydro-4H-imidazo[4,5-c]quinolin-4-one] were less than 100 nM, 18.7 nM and greater than 5 h.
With `O=c1c2ncoc2c2ccc(C(F)(F)F)nc2n1-c1cccnc1C1CC1` (single isomer, unassigned) [Compound 81-P2, 5-(2-cyclopropylpyridin-3-yl)-7-(trifluoromethyl)oxazolo[4,5-c][1,8]naphthyridin-4(5H)-one], the IC50 in data set [1] (class symbols) was less than 100 nM; in data set [1] (numeric values), 36.2 nM.
For the molecule `Cn1cnc2c(=O)n(-c3cccc(F)c3Cl)c3cc(Cl)ccc3c21` [Compound 39, 7-chloro-5-(2-chloro-3-fluorophenyl)-1-methyl-1,5-dihydro-4H-imidazo[4,5-c]quinolin-4-one], the IC50 in data set [1] (class symbols) is less than 100 nM; in data set [1] (numeric values), 60.4 nM. Further, the “Mouse liver microsome stability t1/2” value in data set [2] was greater than 5 h.
In the case of `Cc1ncccc1-n1c(=O)c2ncoc2c2ccc(C(F)(F)F)nc21` [Compound 40, 5-(2-methylpyridin-3-yl)-7-(trifluoromethyl)oxazolo[4,5-c][1,8]naphthyridin-4(5H)-one], the IC50 in data set [1] (class symbols) was less than 100 nM; in data set [1] (numeric values), 43 nM. Besides, the half-life at 1 μM in data set [2] is greater than 5 h.
For `Cc1ncccc1-n1c(=O)c2ncn(C)c2c2ccc(C(F)(F)F)cc21` [Compound 45, 1-methyl-5-(2-methylpyridin-3-yl)-7-(trifluoromethyl)-1,5-dihydro-4H-imidazo[4,5-c]quinolin-4-one], in that order: less than 100 nM, 47 nM and greater than 5 h.

Values taken from patent US20240124454A1, “TRICYCLIC COMPOUND AND USE THEREOF” (NANJING ZAIMING PHARMACEUTICAL CO., LTD., priority 2020, published 2024).
